Test results from ChEMBL document CHEMBL1201862, “PubChem BioAssay data set” (2004).
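These data come from cells grown in 96-well plates and exposed to compound for 48 hours at five concentrations. At the GI50, growth is halved.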 Calls of active or inactive are those of the source. Rule as the data show it: active = GI50 up to about 1.1 µM and inactive = higher.

What was measured:
Test in all cases: DTP human tumour cell line panel, 48 h
NCI-H23 = system: NCI-H23
HCT-116 = system: HCT-116
CCRF-CEM = system: CCRF-CEM
HCT-15 = system: HCT-15
IGROV-1 = system: IGROV-1
HOP-62 = system: HOP-62
MDA-MB-231 = system: MDA-MB-231
HOP-92 = system: HOP-92
CAKI-1 = system: CAKI-1
Malme-3M = system: Malme-3M
SK-MEL-28 = system: SK-MEL-28
RPMI-8226 = system: RPMI-8226
PC-3 = system: PC-3
U-251 = system: U-251
RXF 393 = system: RXF 393
SK-OV-3 = system: SK-OV-3
NCI-H226 = system: NCI-H226
OVCAR-8 = system: OVCAR-8
LOX IMVI = system: LOX IMVI
SK-MEL-5 = system: SK-MEL-5

Measured: GI50

CN1CCN(c2ccc3nc(C4=C(O)C(=O)c5c(nc(CO)n5C)C4=O)[nH]c3n2)CC1
> 100 µM: HCT-15
inactive: NCI-H23 > 100 µM | HCT-116 > 100 µM | CCRF-CEM > 100 µM | IGROV-1 > 100 µM | HOP-62 > 100 µM | MDA-MB-231 > 100 µM | HOP-92 > 100 µM | CAKI-1 > 100 µM | Malme-3M > 100 µM | SK-MEL-28 > 100 µM | RPMI-8226 93.8 µM | PC-3 > 100 µM | U-251 76.2 µM | RXF 393 15.8 µM | SK-OV-3 > 100 µM | NCI-H226 > 100 µM | OVCAR-8 > 100 µM | LOX IMVI > 100 µM

CCCC(=O)OC1C(C(O)CO)OC2OC(C)(C)OC21 (stereo not drawn)
inactive: NCI-H23 > 100 µM | HCT-116 > 100 µM | IGROV-1 > 100 µM | HOP-62 > 100 µM | MDA-MB-231 > 100 µM | HOP-92 > 100 µM | CAKI-1 > 100 µM | Malme-3M > 100 µM | SK-MEL-28 > 100 µM | RPMI-8226 > 100 µM | PC-3 > 100 µM | U-251 > 100 µM | RXF 393 > 100 µM | SK-OV-3 > 100 µM | SK-MEL-5 > 100 µM | NCI-H226 > 100 µM | OVCAR-8 > 100 µM | LOX IMVI > 100 µM
> 100 µM: HCT-15

C(/Cc1ccc2c(c1)OCO2)=N\N=C1NCCN1
> 100 µM: HCT-15
inactive: NCI-H23 > 100 µM | HCT-116 58.9 µM | CCRF-CEM > 100 µM | IGROV-1 > 100 µM | HOP-62 56.1 µM | MDA-MB-231 > 100 µM | HOP-92 34.8 µM | Malme-3M > 100 µM | SK-MEL-28 > 100 µM | RPMI-8226 83.2 µM | PC-3 71.3 µM | U-251 > 100 µM | RXF 393 > 100 µM | SK-OV-3 48.6 µM | SK-MEL-5 47.3 µM | NCI-H226 33.2 µM | OVCAR-8 > 100 µM | LOX IMVI 41.2 µM

O=C(/C=C1\C[C@H]2C=Nc3ccccc3C(=O)N2C1)NCCCCNC(=O)/C=C1\C[C@H]2C=Nc3ccccc3C(=O)N2C1
inactive: NCI-H23 11.3 µM | HCT-116 12.3 µM | CCRF-CEM 1.39 µM | IGROV-1 14.5 µM | HOP-62 17.2 µM | HOP-92 7.93 µM | CAKI-1 2.77 µM | Malme-3M 6.81 µM | SK-MEL-28 15.8 µM | RPMI-8226 4.24 µM | PC-3 14.4 µM | U-251 3.37 µM | RXF 393 6.15 µM | SK-OV-3 18.3 µM | SK-MEL-5 12.8 µM | NCI-H226 13.8 µM | OVCAR-8 4.93 µM | LOX IMVI 1.97 µM
8.89 µM: HCT-15
active: MDA-MB-231 0.494 µM

CCCCCCNC(=O)c1cc(NCc2cc(OC)ccc2OC)ccc1O
inactive: NCI-H23 24.7 µM | HCT-116 21.1 µM | CCRF-CEM 20.5 µM | IGROV-1 21.3 µM | MDA-MB-231 18.7 µM | HOP-92 6.98 µM | CAKI-1 27.2 µM | Malme-3M 22.5 µM | SK-MEL-28 31.8 µM | RPMI-8226 12.2 µM | PC-3 20.2 µM | U-251 17.9 µM | RXF 393 18.7 µM | SK-OV-3 13.1 µM | SK-MEL-5 14.5 µM | NCI-H226 20 µM | OVCAR-8 20.7 µM | LOX IMVI 16.6 µM
21.1 µM: HCT-15

CCN(CC)CCC(=O)c1ccc(Cl)c(Cl)c1
inactive: NCI-H23 > 10 µM | HCT-116 27.5 µM | CCRF-CEM 17.6 µM | IGROV-1 39.5 µM | HOP-62 > 100 µM | MDA-MB-231 > 10 µM | HOP-92 14.8 µM | Malme-3M 24.7 µM | SK-MEL-28 16.6 µM | RPMI-8226 3.61 µM | PC-3 32.1 µM | U-251 36.6 µM | RXF 393 12.5 µM | SK-OV-3 > 100 µM | SK-MEL-5 20.1 µM | NCI-H226 > 100 µM | OVCAR-8 37.2 µM | LOX IMVI 15 µM
34.6 µM: HCT-15

CCOC1=NC(C(F)(F)F)(C(F)(F)F)N=C(N2CCCCC2)O1
> 100 µM: HCT-15
inactive: NCI-H23 > 100 µM | HCT-116 > 100 µM | CCRF-CEM > 100 µM | IGROV-1 > 100 µM | HOP-62 > 100 µM | MDA-MB-231 > 100 µM | HOP-92 > 100 µM | CAKI-1 > 100 µM | Malme-3M > 100 µM | SK-MEL-28 > 100 µM | RPMI-8226 > 100 µM | PC-3 > 100 µM | U-251 > 100 µM | RXF 393 > 100 µM | SK-MEL-5 > 100 µM | NCI-H226 > 100 µM | OVCAR-8 > 100 µM | LOX IMVI > 100 µM

O=C1C(NCCF)=C(Cl)C(=O)c2ncccc21
0.461 µM: HCT-15
inactive: HCT-116 1.18 µM | IGROV-1 1.39 µM | HOP-62 1.47 µM | MDA-MB-231 2.19 µM | HOP-92 2.08 µM | PC-3 1.29 µM | SK-OV-3 1.77 µM | NCI-H226 1.71 µM
active: NCI-H23 0.653 µM | CCRF-CEM 0.204 µM | Malme-3M 0.402 µM | SK-MEL-28 0.701 µM | RPMI-8226 0.49 µM | U-251 0.689 µM | RXF 393 0.736 µM | SK-MEL-5 0.145 µM | OVCAR-8 0.8 µM | LOX IMVI 0.284 µM

CCOC(=O)c1nc2ccccc2nc1Oc1cc(OC)cc(OC)c1
inactive: HCT-116 > 100 µM | CCRF-CEM > 100 µM | IGROV-1 > 100 µM | HOP-62 69.7 µM | MDA-MB-231 > 100 µM | HOP-92 6.81 µM | Malme-3M > 100 µM | SK-MEL-28 > 100 µM | RPMI-8226 > 100 µM | PC-3 > 100 µM | U-251 78.3 µM | RXF 393 53.5 µM | SK-OV-3 > 100 µM | SK-MEL-5 > 100 µM | NCI-H226 > 100 µM | OVCAR-8 > 100 µM | LOX IMVI > 100 µM
> 100 µM: HCT-15

COc1cc(S(=O)(=O)Nc2nc(-c3ccc(/N=C/c4cccs4)cc3)cs2)ccc1Cl
36.1 µM: HCT-15
inactive: NCI-H23 47.1 µM | HCT-116 54.6 µM | CCRF-CEM 33.7 µM | IGROV-1 33.7 µM | HOP-62 > 100 µM | MDA-MB-231 95.1 µM | HOP-92 37.2 µM | CAKI-1 > 100 µM | Malme-3M > 100 µM | SK-MEL-28 > 100 µM | PC-3 76.2 µM | U-251 81.1 µM | RXF 393 20.4 µM | SK-OV-3 > 100 µM | SK-MEL-5 > 100 µM | NCI-H226 > 100 µM | OVCAR-8 40.7 µM | LOX IMVI 31 µM

O=S(=O)(NC(c1ccccc1)(c1cc2ccccc2[nH]1)c1cc2ccccc2n1S(=O)(=O)c1ccccc1)c1ccccc1 (stereo not drawn)
inactive: NCI-H23 > 100 µM | HCT-116 > 100 µM | CCRF-CEM > 100 µM | IGROV-1 > 100 µM | HOP-62 > 100 µM | MDA-MB-231 > 100 µM | HOP-92 > 100 µM | CAKI-1 > 100 µM | Malme-3M 59.2 µM | SK-MEL-28 > 100 µM | RPMI-8226 52.1 µM | PC-3 > 100 µM | U-251 > 100 µM | SK-MEL-5 > 100 µM | NCI-H226 > 100 µM | OVCAR-8 > 100 µM | LOX IMVI > 100 µM
> 100 µM: HCT-15
active: SK-OV-3 0.292 µM

CCCSC1=N/C(=C\c2ccco2)C(=O)N1
inactive: NCI-H23 > 100 µM | HCT-116 > 100 µM | IGROV-1 > 100 µM | HOP-62 > 100 µM | MDA-MB-231 > 100 µM | HOP-92 > 100 µM | CAKI-1 > 100 µM | Malme-3M > 100 µM | SK-MEL-28 > 100 µM | RPMI-8226 > 100 µM | PC-3 > 100 µM | U-251 > 100 µM | RXF 393 > 100 µM | SK-OV-3 > 100 µM | NCI-H226 > 100 µM | OVCAR-8 > 100 µM | LOX IMVI > 100 µM
> 100 µM: HCT-15

Cc1ccc(/N=N/c2c(O)ccc3cc(S(=O)(=O)O)cc(S(=O)(=O)O)c23)cc1
inactive: NCI-H23 > 100 µM | HCT-116 > 100 µM | CCRF-CEM > 100 µM | IGROV-1 > 100 µM | HOP-62 > 100 µM | MDA-MB-231 > 100 µM | HOP-92 > 100 µM | CAKI-1 > 100 µM | Malme-3M > 100 µM | SK-MEL-28 > 100 µM | PC-3 > 100 µM | U-251 > 100 µM | RXF 393 > 100 µM | SK-OV-3 > 100 µM | SK-MEL-5 > 100 µM | NCI-H226 > 100 µM | OVCAR-8 > 100 µM
active: RPMI-8226 < 0.01 µM
> 100 µM: HCT-15

c1ccc(C2(c3cc4ccccc4[nH]3)OCCO2)cc1
41.6 µM: HCT-15
inactive: NCI-H23 > 100 µM | HCT-116 37.8 µM | CCRF-CEM 18.4 µM | IGROV-1 34 µM | MDA-MB-231 > 100 µM | HOP-92 17.3 µM | CAKI-1 86.1 µM | SK-MEL-28 28.2 µM | RPMI-8226 27.3 µM | PC-3 36.6 µM | U-251 > 100 µM | RXF 393 > 100 µM | SK-OV-3 85.1 µM | SK-MEL-5 23.1 µM | NCI-H226 36.6 µM | OVCAR-8 76.2 µM | LOX IMVI 38 µM

COc1cc(C2c3cc4c(cc3CC3COC(=O)N32)OCO4)cc(OC)c1OC (stereo not drawn)
inactive: HCT-116 2.72 µM | CCRF-CEM 2.56 µM | IGROV-1 7.13 µM | HOP-62 4.12 µM | MDA-MB-231 3.71 µM | HOP-92 14.1 µM | CAKI-1 3.65 µM | Malme-3M 2.83 µM | SK-MEL-28 5.05 µM | RPMI-8226 3.13 µM | PC-3 1.99 µM | U-251 3.79 µM | RXF 393 1.57 µM | SK-OV-3 3.03 µM | SK-MEL-5 1.96 µM | NCI-H226 19.5 µM | OVCAR-8 4.03 µM | LOX IMVI 3.14 µM
3.08 µM: HCT-15
